Measured values from the OPERA property sets (Mansouri et al. 2018).
Where a SMILES comes first, the peptide text is derived from it.

CC(C)CC(NC(=O)C(Cc1ccccc1)NC(=O)CNC(=O)C(NC(=O)C(N)Cc1ccc(O)cc1)C(C)O)C(=O)O (stereo not given) (H-YTGFL-OH; configuration not given here) showed a logP of -1.18.
O=[N+]([O-])c1ccc(CCBr)cc1 showed a logP of 2.9.
In the case of Clc1cccc(N2CCN(CCCOn3nnc4ccccc43)CC2)c1, the logP is reported as 4.2.
With COP(=O)(OC)Oc1ccc(C#N)cc1 the logP was 0.84.
Compound Nc1ccc2nc3ccccn3c2n1 has a logP of 1.38.
In the case of c1ccc(N2CCN(CCn3nc4ccccc4n3)CC2)cc1, the logP is reported as 3.34.
With O=C1CCC(=O)N1c1cccc(Cl)c1Cl the logP was 0.9.
In the case of CC(C)NCC(O)COc1ccc(NC=O)cc1 (stereo not given), the logP is reported as 0.54.
Compound CC(=O)OCOC(=O)N(C)N=Nc1ccc(C)cc1 has a logP of 3.28.
Cc1cc(C)cc(Cc2c[nH]cn2)c1 showed a logP of 2.52.
In the case of CC1CC(=O)NN=C1c1ccc(-n2cnc3c2CCCC3)cc1 (stereo not given), the logP is reported as 2.52.
With Cc1oc2nc3oc(=O)ccc3c(C)c2c1C the logP was 2.19.
With O=c1ccc2ccc3occc3c2[nH]1 the logP was 1.82.
O=c1ccc2ccc3occc3c2s1 gave a logP of 2.58.
c1ccc(CN2CCN(CCCOn3nnc4ccccc43)CC2)cc1 gave a logP of 4.
OCCCNc1ncnc2c1ncn2C1OC(CO)C(O)C1O (stereo not given) gave a logP of -0.86.
COc1cccc(-n2nnnc2N)c1 gave a logP of 0.96.
Compound CC(C)C(NC(=O)C(N)Cc1ccccc1)C(=O)NCC(=O)O (stereo not drawn) (H-Phe-Val-Gly-OH; configuration not given here) has a logP of -2.33.
COCCNc1ncnc2c1ncn2C1OC(CO)C(O)C1O (stereo not given) showed a logP of -0.49.
With c1ccc2c(c1)OCCOCCOc1ccccc1OCCO2 the logP was 2.21.
O=C1N=C(N2CCOCC2)CN1Cc1ccccc1Cl showed a logP of 1.
CC(C)CC(NC(=O)C(Cc1ccc(O)cc1)NC(=O)C(N)Cc1ccc(O)cc1)C(=O)O (stereo not drawn) (H-Tyr-Tyr-Leu-OH; configuration not given here) gave a logP of -1.38.
NC(Cc1ccc(O)cc1)C(=O)N1CCCC1C(=O)NCC(=O)NC(Cc1c[nH]c2ccccc12)C(=O)O (stereo not given) (H-YPGW-OH; configuration not given here) showed a logP of -1.25.
Work on OCC1OC(n2cnc3c(NCCc4ccccc4)ncnc32)C(O)C1O (stereo not given) yielded a logP of 1.55.
Compound COCCNC(=O)Cn1cnc([N+](=O)[O-])n1 has a logP of -0.85.
CC(C)CC(NC(=O)C(NC(=O)C(N)C(C)O)C(C)C)C(=O)O (stereo not drawn) (H-Thr-Val-Leu-OH; configuration not given here) showed a logP of -1.97.
For COC1C(OC(C)=O)CC(=O)OC(C)CC=CC=CC(=O)C(C)CC(CC=O)C1OC1OC(C)C(OC2CC(CO)C(OC(=O)CC(C)C)C(C)O2)C(N(C)C)C1O (stereo not given), the logP was 3.52.
c1cc2cc3ccc4c(c3nc2c2c1NCOC2)COCN4 showed a logP of 2.17.
Work on C#CCOc1noc2c1CNCC2 yielded a logP of 0.4.
CC(=O)OCOC(=O)C(C)c1cccc(C(=O)c2ccccc2)c1 (stereo not given) showed a logP of 3.4.
CNc1ccc2cc3ccc4c(c3nc2c1CO)COCN4 showed a logP of 1.65.
CCCc1c(O)c(=O)cc(C)n1C gave a logP of 0.4.
Work on C=CCNc1nc(CCC)nc(N2CCOCC2)n1 yielded a logP of 2.37.
In the case of CC(C(=O)O)c1ccc(N2CC3CCCCC3C2=O)cc1 (stereo not given), the logP is reported as 3.15.
c1ccc(N2CCN(CCCOn3nnc4ccccc43)CC2)cc1 showed a logP of 3.49.
In the case of CC(C)NC(=NC#N)NS(=O)(=O)c1cnccc1Nc1cccc(C(F)(F)F)c1, the logP is reported as 2.54.
NC(=S)NN=C(c1ccccc1)c1ccccn1 showed a logP of 1.92.
NC1CC(CO)N(c2cc3c(cc2F)c(=O)c(C(=O)O)cn3-c2ccc(F)cc2F)C1 (stereo not given) showed a logP of -0.98.
Compound CC(C)NC(=NC#N)NS(=O)(=O)c1cnccc1NC1CCCCCC1 has a logP of 2.07.
N#CC(C#N)=NNc1cccc(Cl)c1Cl showed a logP of 3.85.
Compound COc1ccc(C2Cc3ccccc3N(CCN(C)C)C(=O)C2OC(C)=O)cc1 (stereo not given) has a logP of 3.2.
CCC(C)Nc1nc(N)nc(Cl)n1 (stereo not given) gave a logP of 1.86.
Compound NC(Cc1ccccc1)C(=O)N1CCCC1C(=O)O (stereo not drawn) (H-Phe-Pro-OH; configuration not given here) has a logP of -1.23.
With O=c1cc(CBr)occ1O the logP was 0.61.
Compound Cc1nn(-c2cc(CC(Cl)C(=O)O)c(Cl)cc2F)c(=O)n1C(F)F (stereo not given) has a logP of 3.36.
With CNS(=O)(=O)c1nnc(NC(C)=O)s1 the logP was 0.49.
For CCOc1cccc(NC(=O)OCCN2CCCCC2)c1, the logP was 3.77.
Compound NC(=O)C(Cc1c[nH]c2ccccc12)NC(=O)C(N)Cc1ccccc1 (stereo not drawn) (H-Phe-Trp-NH2; configuration not given here) has a logP of 1.38.
CCOC(=O)Nc1ccc2cc3ccc4c(c3nc2c1)COC(=O)N4 showed a logP of 2.
CSc1ncc([N+](=O)[O-])n1C gave a logP of 0.94.
In the case of Cc1nccc2c1[nH]c1cc(O)ccc12, the logP is reported as 2.84.
Work on O=S(NC(=S)N1CCCCC1)c1cnccc1NC1CCCCC1 (stereo not given) yielded a logP of 3.75.
CC(C)NCC(O)COc1ccc(-c2nc(C(C)C)c[nH]2)cc1 (stereo not given) gave a logP of 2.95.
Work on CCCc1nc(NCC(=O)N(C)C)nc(N2CCOCC2)n1 yielded a logP of 0.67.
For CCCNC(=O)N1C(=O)N(C)CC1O (stereo not given), the logP was 0.99.
Compound CC=C(C)C(=O)OC1CC(C)CCC1C(C)C (stereo not given) has a logP of 6.2.
CC1(C(Cl)Cl)C2CC(Cl)(Cl)C1(C(Cl)Cl)CC2(Cl)Cl (stereo not given) showed a logP of 5.9.
For Cc1c(C)c2cc3ccoc3c(C)c2oc1=O, the logP was 3.25.
In the case of CCCNc1[nH]cnc2ncnc1-2, the logP is reported as 1.44.
Compound Cc1cc(=O)oc2c1ccc1occ(C)c12 has a logP of 3.08.
In the case of CCOC(=O)CCCn1cnc([N+](=O)[O-])n1, the logP is reported as 0.42.
Work on Nc1nc(NC2CC2)c2ncn([C@@H]3C=C[C@@H](CO)C3)c2n1 yielded a logP of 1.22.
With Cc1cccc(Cc2cnc[nH]2)c1C the logP was 2.68.
Compound COC(=O)C(C)=CC1C(C(=O)OCc2cccc(Cc3ccccc3)c2)C1(C)C (stereo not given) has a logP of 6.41.
In the case of NC(=O)c1c(O)cccc1O, the logP is reported as 0.6.
Work on CC(C)NC(=NC#N)NS(=O)(=O)c1cnccc1Nc1ccc(Cl)c(C(F)(F)F)c1 yielded a logP of 3.27.
With CCCCCC(=O)c1ccncc1 the logP was 2.9.
Compound Cc1oc2cc3oc(=O)ccc3cc2c1C has a logP of 2.93.
Work on CC(C)CCC(=O)CC1c2ccccc2C(=O)N1c1ccc2ccc(Cl)nc2n1 (stereo not given) yielded a logP of 4.8.
Compound CCCc1ccccc1CNc1[nH]cnc2ncnc1-2 has a logP of 3.47.
Work on O=C(O)CCCCCON=C(c1cccc(C(F)(F)F)c1)c1cccnn1 yielded a logP of 3.22.
Work on C=CCNC(=O)c1[nH]cc(-c2ccc(Cl)cc2)c1N1CCOCC1 yielded a logP of 3.7.
Compound Cn1c2c(c3cc(Cl)ccc31)CCNC2 has a logP of 2.3.
Work on CC(C)OC(=O)C(=Cc1ccccc1)S(=O)(=O)c1ccc(Cl)cc1 yielded a logP of 4.18.
In the case of CCCc1nc(N)nc(N2CCOCC2)n1, the logP is reported as 0.7.
For C#CC(C)(C)NCC(O)CON=C(C1CC1)C1CC1 (stereo not given), the logP was 1.6.
Work on Nc1nnnn1-c1cccc(F)c1 yielded a logP of 0.91.
Work on CC(C)CC(N)C(=O)NC(C(=O)O)C(C)C (stereo not drawn) (H-Leu-Val-OH; configuration not given here) yielded a logP of -2.05.
In the case of CN(C)CCOc1cccc(Cl)c1, the logP is reported as 2.82.
With CC(C)NC(=NC#N)NS(=O)(=O)c1cnccc1Nc1ccc(Cl)cc1 the logP was 2.37.
Work on Cc1nc2ccccc2c(=O)n1CC(=O)NCc1ccco1 yielded a logP of 1.24.
With CCc1cccc(C)c1NC(=O)OC the logP was 1.99.
Work on CC(C)(CO)N=O yielded a logP of -0.52.
In the case of Nc1nnnn1-c1cc(Cl)ccc1Cl, the logP is reported as 1.61.
Compound CCCON=C(C)c1cccc(Oc2nc(OC)cc(OC)n2)c1C(=O)OC has a logP of 3.59.
CCOC(=O)c1cccc(CN)c1 gave a logP of 1.44.
For COC(=O)C(C)NP(=O)(OCC1C=CC(n2cc(C)c(=O)[nH]c2=O)O1)Oc1ccc(Cl)c(Cl)c1 (stereo not given), the logP was 2.15.
With CC(C)NC(=O)N1C(=O)N(C)CC1O (stereo not given) the logP was 0.96.
Nc1nc(O)nc(Nc2ccccc2)n1 showed a logP of 1.9.
In the case of Cc1oc2nc3oc(=O)cc(C)c3cc2c1C, the logP is reported as 2.25.
